Experimental data: US11696913B2, “Prolonged ectoparasite-controlling agent for animal” (MITSUI CHEMICALS AGRO, INC., priority 2017, dated 2023)

Columns and labels:
Ctenocephalides felis [1] = test: In vitro contact test with fleas; conditions: read-out: insecticidal activity; for pest or weed control at 0.04 µg/cm2, 0.04 µg/cm2: dose 0.04 μg/cm^2, dead or moribund fleas after 48 h; for pest or weed control at 0.2 µg/cm2, 0.2 µg/cm2: dose 0.2 μg/cm^2, dead or moribund fleas after 48 h; for pest or weed control at 1 µg/cm2, 1 µg/cm2: dose 1 μg/cm^2, dead or moribund fleas after 48 h
Outline: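 Activity is the percentage of fleas dead or moribund at 48 h, judged by immobility or uncoordinated movement after tapping. Tubes were coated by evaporating acetone solutions (900 ppm gives 5 μg/cm^2), then held 5-10 adult fleas of both sexes at room temperature and ambient humidity.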

Amblyomma americanum = test: In vitro contact test with hard ticks (Amblyomma americanum nymphs); conditions: read-out: acaricidal activity; for pest or weed control at 0.2 µg/cm2, 0.2 µg/cm2: dose 0.2 μg/cm^2, 48 h; for pest or weed control at 1 µg/cm2, 1 µg/cm2: dose 1 μg/cm^2, 48 h
Outline: (§1)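 Acaricidal activity = % ticks dead or moribund after 48 h contact with acetone-deposited compound on vial walls (e.g., 900 ppm solution → 5 μg/cm^2). Ambient conditions for R. sanguineus, 21° C./85% rel. hum. for other species; heat challenge at 45-50° C. separated climbers from moribund ticks.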

Dermacentor variabilis = test: In vitro contact test with adult hard ticks (Dermacentor variabilis); conditions: read-out: acaricidal activity; for pest or weed control at 0.04 µg/cm2, 0.04 µg/cm2: dose 0.04 μg/cm^2, 48 h; for pest or weed control at 0.2 µg/cm2, 0.2 µg/cm2: dose 0.2 μg/cm^2, 48 h; for pest or weed control at 1 µg/cm2, 1 µg/cm2: dose 1 μg/cm^2, 48 h
Outline: as §1

Ixodes ricinus = test: In vitro contact test with adult hard ticks (Ixodes ricinus); conditions: read-out: acaricidal activity; for pest or weed control at 0.2 µg/cm2, 0.2 µg/cm2: dose 0.2 μg/cm^2, 48 h; for pest or weed control at 1 µg/cm2, 1 µg/cm2: dose 1 μg/cm^2, 48 h; for pest or weed control at 5 µg/cm2, 5 µg/cm2: dose 5 μg/cm^2, 48 h
Outline: as §1

Rhipicephalus sanguineus = test: In vitro contact test with adult hard ticks (Rhipicephalus sanguineus); conditions: read-out: acaricidal activity; for pest or weed control at 0.04 µg/cm2, 0.04 µg/cm2: dose 0.04 μg/cm^2, 48 h; for pest or weed control at 0.2 µg/cm2, 0.2 µg/cm2: dose 0.2 μg/cm^2, 48 h; for pest or weed control at 1 µg/cm2, 1 µg/cm2: dose 1 μg/cm^2, 48 h
Outline: as §1

[2] = system: Rhipicephalus (Boophilus) microplus; test: In vitro injection test with Rhipicephalus (Boophilus) microplus (BOOPMI Inj); conditions: 168 h, laid fertile eggs after 7 days, read-out: acaricidal activity; for pest or weed control at 32 ng: dose 0.032 μg/animal injected; for pest or weed control at 0.00016 mg: dose 0.16 μg/animal injected; for pest or weed control at 0.0008 mg: dose 0.8 μg/animal injected; for pest or weed control at 6.4 ng: dose 0.0064 μg/animal injected
Outline: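 Five engorged adult females each get a 1 μl abdominal injection of compound dissolved and diluted in DMSO. Kept 7 days at 28° C./85% rel. hum.; percent activity rates egg laying and egg fertility (0% all fertile, 100% none laid or infertile).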

Ctenocephalides felis [3] = test: Ctenocephalides felis in-vitro feeding test with fleas (CTECFE oral); conditions: 48 hours, read-out: insecticidal feeding activity; for pest or weed control at 0.16 ppm: dose 0.16 ppm in citrated cattle blood; for pest or weed control at 0.8 ppm: dose 0.8 ppm in citrated cattle blood; for pest or weed control at 4 ppm: dose 4 ppm in citrated cattle blood; for pest or weed control at 0.032 ppm: dose 0.032 ppm in citrated cattle blood
Outline: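 Scored as percent fleas killed (0–100%) 48 hours after feeding began. Compound, dissolved in DMSO and diluted into citrated cattle blood, was offered via a parafilm membrane to roughly 20 adult male and female C. felis at about 37° C.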

Spodoptera litura = test: Insecticidal testing against common cutworm; assay type: in vivo; conditions: foliar, 144 h, concentration 100 ppm, cabbage leaf dip, second-stage larvae, after 6 days, read-out: pesticidal rate
Description: Insecticidal Testing Against Common Cutworm (Spodoptera litura)

Plutella xylostella = test: Insecticidal testing against diamondback moth; assay type: in vivo; conditions: foliar, 144 h, concentration 100 ppm, cabbage leaf dip, third-stage larvae, after 6 days, read-out: pesticidal rate
Description: Insecticidal Testing Against Diamondback Moth (Plutella xylostella)

Laodelphax striatellus = test: Insecticidal testing against small brown planthopper; assay type: in vivo; conditions: 144 h, concentration 100 ppm, sprayed rice seedlings, after 6 days, read-out: pesticidal rate
Outline: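 Acetone solution of compound at a set concentration sprayed onto rice seedlings, air-dried, then exposed to 10 planthoppers (one group). Held at 25° C; survival rate recorded after 6 days.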

SMILES | pest or weed control at 0.04 µg/cm2, 0.04 µg/cm2 (Ctenocephalides felis [1]) [%] | pest or weed control at 0.2 µg/cm2, 0.2 µg/cm2 (Ctenocephalides felis [1]) [%] | pest or weed control at 1 µg/cm2, 1 µg/cm2 (Ctenocephalides felis [1]) [%] | pest or weed control at 1 µg/cm2, 1 µg/cm2 (Amblyomma americanum) [%] | pest or weed control at 0.2 µg/cm2, 0.2 µg/cm2 (Dermacentor variabilis) [%] | pest or weed control at 1 µg/cm2, 1 µg/cm2 (Dermacentor variabilis) [%] | pest or weed control at 0.2 µg/cm2, 0.2 µg/cm2 (Ixodes ricinus) [%] | pest or weed control at 1 µg/cm2, 1 µg/cm2 (Ixodes ricinus) [%] | pest or weed control at 5 µg/cm2, 5 µg/cm2 (Ixodes ricinus) [%] | pest or weed control at 0.2 µg/cm2, 0.2 µg/cm2 (Rhipicephalus sanguineus) [%] | pest or weed control at 1 µg/cm2, 1 µg/cm2 (Rhipicephalus sanguineus) [%] | pest or weed control at 32 ng [2] [%] | pest or weed control at 0.00016 mg [2] [%] | pest or weed control at 0.0008 mg [2] [%] | pest or weed control at 0.16 ppm (Ctenocephalides felis [3]) [%] | pest or weed control at 0.8 ppm (Ctenocephalides felis [3]) [%] | pest or weed control at 4 ppm (Ctenocephalides felis [3]) [%] | pest or weed control at 100 ppm (Spodoptera litura) [%] | pest or weed control at 100 ppm (Plutella xylostella) [%] | pest or weed control at 100 ppm (Laodelphax striatellus) [%] | other results
O=C(Nc1cccc(C(=O)Nc2c(I)cc(C(F)(C(F)(F)F)C(F)(F)F)cc2OC(F)(F)F)c1F)c1ccc(F)cc1 [Compound 73] | 95 | 95 | 95 | 90 | 90 | 90 | 90 | 90 | 90 | 90 | 90 | 100 | 100 | 100 | 95 | 95 | 95 | ≥ 70 | ≥ 70 | ≥ 70 | pest or weed control at 0.2 µg/cm2, 0.2 µg/cm2 (Amblyomma americanum): 90%; pest or weed control at 0.04 µg/cm2, 0.04 µg/cm2 (Dermacentor variabilis): 90%; pest or weed control at 0.04 µg/cm2, 0.04 µg/cm2 (Rhipicephalus sanguineus): 90%
CN(C(=O)c1ccc(F)cc1)c1cccc(C(=O)Nc2c(Br)cc(C(F)(C(F)(F)F)C(F)(F)F)cc2OC(F)F)c1F [Compound 89] | 95 | 95 | 95 | 90 | 90 | 90 | 90 | 90 | 90 | 90 | 90 | 100 | 100 | 100 | 95 | 95 | 95 | ≥ 70 | ≥ 70 | ≥ 70 | pest or weed control at 6.4 ng [2]: 100%; pest or weed control at 0.032 ppm (Ctenocephalides felis [3]): 95%
O=C(Nc1cccc(C(=O)Nc2c(I)cc(C(F)(C(F)(F)F)C(F)(F)F)cc2OC(F)(F)F)c1F)c1ccc(F)c(F)c1 [Compound 97] | 95 | 95 | 95 | 90 | 90 | 90 | 90 | 90 | 90 | 90 | 90 |  | 100 | 100 | 95 | 95 | 95 | ≥ 70 | ≥ 70 | ≥ 70 | pest or weed control at 0.2 µg/cm2, 0.2 µg/cm2 (Amblyomma americanum): 90%; pest or weed control at 0.04 µg/cm2, 0.04 µg/cm2 (Dermacentor variabilis): 90%
O=C(Nc1cccc(C(=O)Nc2c(Br)cc(C(F)(C(F)(F)F)C(F)(F)F)cc2OC(F)(F)F)c1F)c1ccc(F)cc1 [Compound 71] |  | 95 | 95 | 90 | 90 | 90 | 90 | 90 | 90 | 90 | 90 | 100 | 100 | 100 |  | 95 | 95 | ≥ 70 | ≥ 70 | ≥ 70 | pest or weed control at 0.2 µg/cm2, 0.2 µg/cm2 (Amblyomma americanum): 90%; pest or weed control at 0.04 µg/cm2, 0.04 µg/cm2 (Rhipicephalus sanguineus): 90%
CN(C(=O)c1ccc(F)c(F)c1)c1cccc(C(=O)Nc2c(I)cc(C(F)(C(F)(F)F)C(F)(F)F)cc2OC(F)F)c1F [Compound 109] | 95 | 95 | 95 | 90 | 90 | 90 | 90 | 90 | 90 |  |  | 100 | 100 | 100 | 95 | 95 | 95 | ≥ 70 | ≥ 70 | ≥ 70 | pest or weed control at 0.04 µg/cm2, 0.04 µg/cm2 (Rhipicephalus sanguineus): 90%; pest or weed control at 6.4 ng [2]: 100%; pest or weed control at 0.032 ppm (Ctenocephalides felis [3]): 95%
O=C(Nc1cccc(C(=O)Nc2c(Br)cc(C(F)(C(F)(F)F)C(F)(F)F)cc2OC(F)F)c1F)c1ccc(F)cc1 [Compound 91] | 95 | 95 | 95 | 90 | 90 | 90 | 90 | 90 | 90 | 90 | 90 | 100 | 100 | 100 | 95 | 95 | 95 | ≥ 70 | ≥ 70 | ≥ 70 | pest or weed control at 0.04 µg/cm2, 0.04 µg/cm2 (Amblyomma americanum; dose 0.04 μg/cm^2, 48 h): 90%; pest or weed control at 0.2 µg/cm2, 0.2 µg/cm2 (Amblyomma americanum): 90%; pest or weed control at 0.04 µg/cm2, 0.04 µg/cm2 (Dermacentor variabilis): 90%; pest or weed control at 0.04 µg/cm2, 0.04 µg/cm2 (Rhipicephalus sanguineus): 90%; pest or weed control at 0.032 ppm (Ctenocephalides felis [3]): 95%
